The values that follow come from patent publication US20220184060A1, “PHARMACEUTICAL COMPOSITION COMPRISING SPHERICAL AGGLOMERATES OF TIMAPIPRANT” (Chiesi Farmaceutici S.p.A., priority 2018, published 2022).

Assay type in all cases: physicochemical
Data set [1] can be described thus: Flowability of the blend material (API with tablet excipients) before compression. The settings on record: blend material of API with the excipients of Table 3; for Flow properties of the blend (in words): suitability for direct compression. The method, then: The spherical agglomerates of timapiprant or the micronized timapiprant, together with the microcrystalline cellulose, the croscarmellose sodium, the poloxamer, the sodium lauryl sulphate and the colloidal silicon dioxide in the above amounts, are sieved in a sieve of 1.2 mm. The lactose monohydrate is then added, and the resulting mixture is blended in a free fall blender for at least 15 minutes. The magnesium stearate is added to the obtained mixture which is further blended in the free fall blender for additional 3 minutes.

A short description of data set [2]: Specific surface area (SSA) by BET nitrogen adsorption (TriStar, Micromeritics). As to conditions: degassing 2 hours at 40° C. As to the method:
The specific surface areas (SSA) of spherical agglomerates of timapiprant obtained according to Examples 3, 5,7 and the micronized timapiprant were measured was determined by BET nitrogen adsorption using the TriStar of Micromeritics apparatus according to following parameters: • Isotherm, Adsorbing/Desorbing Run: 0 to 1 p/p0 • Vials: ⅜ Inch, Degassing Pre-analysis: 2 hours at 40° C., Nitrogen as adsorbate • Preparation: Evacuation Rate 10 mmHg/s; Unrestricted evacuation from 5 mmHg • Vacuum setpoint: 10 mmHg, Evacuation time: 1 hour • Leak Test Duration: 120 s, Outgas Test Duration: 180 s • Measure p0 at intervals during the analysis, Enter the analysis bath temperature: […]77 kelvin • Equilibration Interval: 5 s; Minimum Equilibration Delay at p/p0≥0,995 per 600 s.

A short description of data set [3]: Primary particle size distribution by laser diffraction (Malvern Mastersizer 2000) after break up of spherical agglomerates. The settings on record: for PSD d (0.1), mean result / PSD d (0.5), mean result: mean of 10 acquisitions, primary particles after sonication in water; for PSD d (0.1) / PSD d (0.5): single acquisition (Measure 1-10), primary particles, agglomerates dispersed in water by 10 minutes sonication, 1500 rpm. As to the method:
The primary particle size distribution results are produced by means of a Malvern 2000 laser diffraction equipment by the analysis of the primary particles in suspension.
The particle size distribution laser diffraction measures were performed using a Malvern Mastersizer 2000 equipped with a Hydro 2000S cell for the wet suspension of the Timapiprant primary particles. The spherical agglomerates obtained according to the Examples 3 and 5, were dispersed in water by means of 10 minutes sonication and then added to the cell, previously filled with water, until an obscuration within 5-10% was obtained.

Values joined by “and” are separate entries in the source; they are usually repeats but may differ in a detail not shown here. Equal values may be shown once.

For `Cc1c(Cc2ccc3ccccc3n2)c2cc(F)ccc2n1CC(=O)O` [Micronized Timapiprant, reference compound], the “Flowability (s/100 g)” value in data set [1] is listed as “∞”. The “Flow properties of the blend (in words)” value in data set [1] is listed as “very poor flow properties”. Also, the “SSA (specific surface area)” value in data set [2] was 8.0 m^2/g and 7.8 m^2/g; in data set [2] (listed as micronized timapiprant), “less than 8.5 m^2/g”.
As for `Cc1c(Cc2ccc3ccccc3n2)c2cc(F)ccc2n1CC(=O)O` [Spherical agglomerates of timapiprant of Example 3] [5-fluoro-2-methyl-3-(quinolin-2-ylmethyl)-1H-indol-1-yl)acetic acid], the “SSA (specific surface area)” value in data set [2] is reported as 13.1 m^2/g. In data set [3], the “PSD d (0.1), mean result” value was 0.28 μm; the “PSD d (0.5), mean result” value worked out at 0.56 μm; the “PSD d (0.1)” value is 0.28 μm and 0.275 μm and 0.278 μm and 0.279 μm; the “PSD d (0.5)” value was 0.56 μm and 0.555 μm and 0.561 μm and 0.559 μm.
For the compound `Cc1c(Cc2ccc3ccccc3n2)c2cc(F)ccc2n1CC(=O)O` [Spherical agglomerates of timapiprant of Example 5] [5-fluoro-2-methyl-3-(quinolin-2-ylmethyl)-1H-indol-1-yl)acetic acid], in data set [1] (listed as Spherical agglomerates of timapirpant), the “Flowability (s/100 g)” value was found to be 4 sec s/100 g. Also, the “Flow properties of the blend (in words)” value in data set [1] was “good flowability”. The “SSA (specific surface area)” value in data set [2] was 10.1 m^2/g. Besides, in data set [3], the “PSD d (0.1), mean result” value is 0.31 μm; the “PSD d (0.5), mean result” value worked out at 0.64 μm; the “PSD d (0.1)” value was 0.314 μm and 0.315 μm; the “PSD d (0.5)” value is 0.64 μm and 0.642 μm and 0.638 μm and 0.641 μm and 0.639 μm.
Regarding `Cc1c(Cc2ccc3ccccc3n2)c2cc(F)ccc2n1CC(=O)O` [Spherical agglomerates of timapiprant of Example 7] [5-fluoro-2-methyl-3-(quinolin-2-ylmethyl)-1H-indol-1-yl)acetic acid], in data set [2], the “SSA (specific surface area)” value turned out to be 15.5 m^2/g.
